Experimental data as given in US7951538B2, “Method to determine the risk for side effects of an SSRI treatment in a person” (The Board of Trustees of the Leland Stanford Junior …, priority 2001, dated 2011).

Assays:
[1] = test system: patients with major depression; settings: human, in vivo
From the text: (§1) All subjects were 65 years of age or older and had been free of 10 major medical problems for at least 3 months. […] Patients were excluded for clinically significant laboratory abnormalities, drug or alcohol abuse, psychosis, recent suicide attempt, and psychiatric conditions other than major depression, or treatment with antidepressant medications within 7 days of commencing the study.
Genomic DNA was extracted from EDTA-treated whole blood using the Puregene DNA extraction kit (Gentra Systems). Genotype for the 102 T/C DNA sequence polymorphism in the 5-HT2A receptor gene was determined using the method of Du et al. (Am J Med Genet. 2000 Feb. 7;96(1):56-60). […]
Discontinuations were classified as due to any event, and as due to an adverse event. […] Body weight was determined at baseline and at each subsequent visit. Actual medication taken Was determined by counting the number of tablets remaining at each clinic visit. Dosing compliance was determined by as total number of medication doses taken divided by total number of capsules given. […]

[2] = test system: patients with major depression; assay: Improvement in mood on the Hamilton Depression Rating Scale over the 8 week treatment period; format: in vivo, human; settings: not affected by the 102 T/C polymorphism
Method: as §1
On day 14, doses were increased to 30 mg once daily. […] All patients Were genotype for the 102 T/C polymorphism using the method described above.

CN1CCN2c3ncccc3Cc3ccccc3C2C1 (stereo not drawn) [mirtazapine]
probability of discontinuing treatment due to side effects [1]: no greater probability | severity of side effects [1]: no greater severity | improvement in mood (decreased depression), Hamilton Depression Rating Scale [2]: statistically significant improvement
